According to the supplement of paper PMC10307832:

What was measured:
Assay in all cases: relative viability (nuclei count vs DMSO), 5 days (fraction); higher = more cells survive
[1] = compound: CC[C@H](Nc1ncnc2[nH]cnc12)c1nc2cccc(F)c2c(=O)n1-c1ccccc1 [Idelalisib] + Cc1nc(NC(=O)N2CCC[C@H]2C(N)=O)sc1-c1ccnc(C(C)(C)C(F)(F)F)c1 [Alpelisib] (partner 2 µM)
Method in brief: (§1)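 Relative viability was taken as the ratio of nuclei in treated wells to nuclei in vehicle wells. Lung cancer cell lines in 1536-well plates received compounds by pin tool one day after seeding, either one drug alone or a fixed anchor-drug dose plus five library-drug doses (not always all listed) in √10 steps. Nuclei were counted on 4× images after 5 days of treatment, and values are medians of duplicate plates.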

[2] = compound: Nc1nc2[nH]cc(CCc3ccc(C(=O)N[C@@H](CCC(=O)O)C(=O)O)cc3)c2c(=O)[nH]1 [Pemetrexed] + CC(=O)Nc1cccc(-n2c(=O)n(C3CC3)c(=O)c3c(Nc4ccc(I)cc4F)n(C)c(=O)c(C)c32)c1 [Trametinib] (partner 0.02 µM)
Method in brief: as §1

[3] = compound: Nc1nc2[nH]cc(CCc3ccc(C(=O)N[C@@H](CCC(=O)O)C(=O)O)cc3)c2c(=O)[nH]1 [Pemetrexed] + CC(C)C[C@H](NC(=O)[C@H](Cc1ccccc1)NC(=O)c1cnccn1)B(O)O [Bortezomib] (partner 0.002 µM)
Method in brief: as §1

[4] = compound: Nc1nc2[nH]cc(CCc3ccc(C(=O)N[C@@H](CCC(=O)O)C(=O)O)cc3)c2c(=O)[nH]1 [Pemetrexed] + CCNC(=O)c1noc(-c2cc(C(C)C)c(O)cc2O)c1-c1ccc(CN2CCOCC2)cc1 [Luminespib] (partner 0.01 µM)
Method in brief: as §1

Cell Line | relative viability ([1]; first compound 0.04 µM) | relative viability ([1]; first compound 0.1265 µM) | relative viability ([1]; first compound 0.4 µM) | relative viability ([1]; first compound 1.265 µM) | relative viability ([1]; first compound 4 µM) | relative viability ([2]; first compound 0.002 µM) | relative viability ([2]; first compound 0.006325 µM) | relative viability ([2]; first compound 0.02 µM) | relative viability ([2]; first compound 0.06325 µM) | relative viability ([2]; first compound 0.2 µM) | relative viability ([3]; first compound 0.002 µM) | relative viability ([3]; first compound 0.006325 µM) | relative viability ([3]; first compound 0.02 µM) | relative viability ([3]; first compound 0.06325 µM) | relative viability ([3]; first compound 0.2 µM) | relative viability ([4]; first compound 0.002 µM) | relative viability ([4]; first compound 0.006325 µM) | relative viability ([4]; first compound 0.02 µM) | relative viability ([4]; first compound 0.06325 µM) | relative viability ([4]; first compound 0.2 µM)
NCI-H2023 | 0.693 | 0.564 | 0.524 | 0.494 | 0.313 | 0.502 | 0.553 | 0.537 | 0.392 | 0.183 | 0.519 | 0.912 | 1.04 | 0.815 | 0.304 | 0.717 | 0.656 | 0.932 | 0.483 | 0.227
Calu-6 | 0.954 | 1.03 | 0.909 | 0.99 | 0.892 |  |  |  |  |  | 0.963 | 0.937 | 1.01 | 0.971 | 0.942 |  |  |  |  | 
SW 900 |  |  |  |  |  | 0.841 | 0.793 | 0.928 | 0.67 | 0.549 |  |  |  |  |  | 0.198 | 0.147 | 0.18 | 0.181 | 0.158
HOP-62 | 1.19 | 1.09 |  | 0.853 | 1.06 | 0.431 | 0.389 | 0.386 | 0.399 | 0.327 | 0.741 | 0.862 | 0.617 | 0.722 | 0.668 | 0.85 | 0.936 | 0.851 | 0.814 | 0.932
H3255 | 0.652 | 0.683 | 0.591 | 0.518 | 0.607 | 0.517 | 0.581 | 0.673 | 0.55 | 0.515 |  | 0.834 | 0.933 | 0.692 | 0.572 | 0.714 | 0.799 | 0.93 | 0.852 | 0.844
NCI-H1734 | 0.695 | 0.7 | 0.574 | 0.592 | 0.443 | 0.603 | 0.623 | 0.679 | 0.627 | 0.524 | 0.911 | 1.01 | 0.929 | 0.944 | 0.705 | 0.208 | 0.192 | 0.219 | 0.206 | 0.218
SK-MES-1 | 0.837 | 0.913 | 0.753 | 0.715 | 0.574 | 0.553 | 0.568 | 0.618 | 0.559 | 0.539 |  |  |  |  |  | 0.649 | 0.56 | 0.965 | 0.688 | 0.773
NCI-H1792 | 0.315 | 0.662 | 0.665 | 0.577 | 0.581 | 0.374 | 0.406 | 0.533 | 0.393 | 0.41 | 0.931 | 0.969 | 0.966 | 0.943 | 0.927 | 0.578 | 0.51 | 0.539 | 0.476 | 0.45
EKVX | 0.835 | 0.896 | 0.728 | 0.625 | 0.53 | 0.337 | 0.327 | 0.37 | 0.297 | 0.218 | 0.939 | 0.946 | 0.971 | 0.979 | 0.553 | 0.968 | 0.876 | 0.977 | 0.816 | 0.784
EPLC-272H | 0.617 | 0.9 | 0.767 | 0.74 | 0.669 | 0.33 | 0.27 | 0.385 | 0.305 | 0.227 | 0.682 | 0.888 | 1.16 | 0.848 | 0.926 | 0.265 | 0.153 | 0.27 | 0.321 | 0.536
LK-2 | 1.16 | 1.17 |  | 1.09 | 1.11 | 0.649 | 0.568 | 0.697 | 0.737 | 0.659 |  |  |  |  |  | 0.179 | 0.181 | 0.187 | 0.165 | 0.208
CAL-12T | 1.34 | 1.18 | 0.898 | 0.966 | 0.971 | 0.332 | 0.329 | 0.328 | 0.347 | 0.331 | 0.812 | 0.935 | 1.16 | 0.9 | 0.939 | 0.307 | 0.352 | 0.38 | 0.363 | 0.557
NCI-H322M | 0.826 | 0.764 | 0.632 | 0.62 | 0.716 | 0.511 | 0.478 | 0.503 | 0.456 | 0.551 | 1.32 | 1.06 | 1.22 | 1.29 | 1.19 | 0.987 | 0.767 | 0.853 | 0.84 | 0.752
NCI-H1650 |  |  |  |  |  | 0.496 | 0.534 | 0.6 | 0.296 | 0.229 | 0.208 | 0.208 | 0.204 | 0.22 | 0.2 | 0.192 | 0.18 | 0.199 | 0.178 | 0.183
NCI-H2342 |  |  |  |  |  | 0.763 | 0.757 | 0.773 | 0.857 | 0.841 |  |  |  |  |  | 0.678 | 0.8 | 0.676 | 0.799 | 0.788
SW 1573 | 0.822 | 0.612 | 0.711 | 0.729 | 0.633 | 0.511 | 0.521 | 0.572 | 0.474 | 0.577 | 1.1 | 0.881 | 1.11 | 0.896 | 1.04 | 0.285 | 0.443 | 0.249 | 0.125 | 0.176
NCI-H2405 | 0.811 | 0.642 | 0.537 | 0.683 | 0.544 | 0.735 | 0.589 | 0.66 | 0.582 | 0.653 | 0.983 | 0.974 | 1.05 | 0.986 | 0.96 | 0.703 | 0.775 | 0.77 | 0.818 | 0.789
LCLC-103H | 1 | 0.914 | 0.744 | 0.868 | 0.926 | 0.659 | 0.639 | 0.734 | 0.698 | 0.677 | 1.08 | 1.01 | 1 | 1.23 | 1.02 | 0.963 | 0.942 | 1.02 | 0.796 | 0.94
